Source: US8591892B2, “FTY720 increases CD74 expression and sensitizes cancer cells to anti-CD74 antibody-mediated cell death” (The Ohio State University, priority 2011, dated 2013)

What was measured:
four MCL cell lines = assay: Cell viability by annexin-V/PI staining and flow cytometry, four lines together; assay type: cell-based, human; conditions: Jeko-1, Z-138 and UPN-1 cell lines, 24 hours
Description: (§1) FIG. 4. FTY720 sensitizes MCL cell lines and primary patient tumor cells to milatuzumab-mediated cytotoxicity. (A) Four MCL cell lines and primary cells from 6 patients were treated with FTY720 and/or milatuzumab plus cross-linking antibodies at the indicated concentrations. (B) Patient characteristics. (C) Individual patient responses. (D) Representative histograms summarizing patient responses. Cell death was determined by annexin V/PI staining and flow cytometry at 24 hours. Data are shown as the percentage of annexin V−/PI− cells (live cells) and are normalized to untreated controls.
To assess lysosomal volume, FTY720 treated cells were incubated with LYSOTRACKER™ green DND-26. To assess lysosomal membrane permeability, FTY720 treated cells were incubated with acridine orange (MOLECULAR PROBES; INVITROGEN). For analysis of cell viability, MCL cell lines (0.5×10^6/ml) and primary cells (1×10^6/ml) were treated with FTY720, milatuzumab, and the combination of both. […] Cell viability was measured at 24 hours by dual staining with annexin-V FITC and propidium iodide (PI). A total of 10,000 events were collected and analyzed using WinMDI.
The in vitro survival of four MCL cell lines treated with FTY720, milatuzumab in the presence of a cross-linking antibody, and the combination of FTY720 and milatuzumab was determined at 24 hours by annexin-V/PI staining and flow cytometry. […]

human AML cell lines = assay: Proliferation assays, milatuzumab with/without IFN-γ; assay type: cell-based
Description: CD74 expression in bone marrow biopsy (BMB) specimens from non-M3 AML patients was evaluated by immunohistochemistry and, for 3 human AML cell lines, by flow cytometry, with/without permeabilization and with/without IFN-γ (40 and 200 U/mL). These cell lines were also tested in proliferation assays for responses to milatuzumab, with/without IFN-γ. In 13/14 BMB specimens, there was moderate to strong CD74 expression by leukemic blasts, which was mostly intracellular, usually with a perinuclear distribution (data not shown). […] IFN-γ induced intracellular CD74 in all 3 lines (from 85%-868%) (not shown).

WSU-FSCCL NHL cells = assay: Cytotoxicity of milatuzumab with GAH crosslinking, with and without IFN-γ; assay type: cell-based; conditions: in vitro
Description: (§2) We examined whether the ability of anti-CD74 MAbs to kill cancer cells can be increased by using IFN-γ as an inducer of antigen expression. Using a panel of diverse cancer cell lines (including NHL, MM, GBM, and pancreatic and colonic carcinomas), we examined IFN-γ-induced changes in surface and cytoplasmic CD74 expression. Sensitivity of the malignant cells to milatuzumab was assessed with and without IFN-γ by cytotoxicity assays.
(§3) The cytotoxicity of anti-CD74 antibodies was examined in the presence or absence of IFN-γ (not shown). As previously observed, in vitro cytotoxicity of milatuzumab required crosslinking (Stein, et al., Blood, 104: 3705-11, 2004). Goat anti-human IgG (GAH) was used for crosslinking in these experiments.

[1] = multiple myeloma patients, 1.5 mg/kg twice weekly for 4 weeks; cited from earlier work
Aspc-1 = assay: Flow cytometry of CD74, HLA-DR, CEACAM5 with directly labeled MAbs, with and without IFN-γ; assay type: cell-based
Description: (§4) Expression of CD74, HLA-DR, and carcinoembryonic antigen (CEACAM5) was determined in untreated cells and cells exposed to 200 U of IFN-γ for 48 h by flow cytometry. Cells were stained with directly labeled MAbs in comparison to a directly labeled human IgG control. Antibodies were labeled using ALEXA FLUOR® 488 (Invitrogen, Carlsbad, Calif.). For determination of cytoplasmic antigen expression, cells were permeabilized prior to staining using the BD CYTOFIX/CYTOPERM™ kit (BD Biosciences, San Jose, Calif.).

Moser = assay: as above; assay type: cell-based
Description: as §4

[2] = single agents, same dosage and delivery schedule; cited from earlier work
[3] = tested on: Capan-1, Aspc-1, LoVo, HT-29, U87, U118 cells; assay: Cytotoxicity of milatuzumab with and without crosslinking agent or IFN-γ; assay type: cell-based; conditions: regardless of crosslinking agent or IFN-γ
Description: as §2, §3

[4] = tested on: primary tumor cells from MCL patients; assay: Cell viability by annexin-V/PI staining and flow cytometry; assay type: cell-based, human; conditions: six MCL patients, 24 hours; FTY720 2.5 μM, immobilized milatuzumab 5 μg/ml
Description: as §1
Primary tumor cells were isolated from the peripheral blood/lymph nodes of patients with MCL. All patients studied were diagnosed with MCL according to the World Health Organization (WHO) classification of tumors (Swerdlow, 2008, World Health Organization Classification of Tumours of Haematopoetic and Lymphoid Tissues (ed 4th ed.) Lyon, France, International Agency on Research for Cancer). All samples contained at least 85% of CD19^+/CD20^+ B cells detected by flow cytometry. […]
To assess lysosomal volume, FTY720 treated cells were incubated with LYSOTRACKER™ green DND-26. […] Cell viability was measured at 24 hours by dual staining with annexin-V FITC and propidium iodide (PI). A total of 10,000 events were collected and analyzed using WinMDI. […]

[5] = tested on: Jeko cells engrafted in SCID mice; assay: Preclinical model of human MCL in SCID mice, survival; assay type: in vivo, mouse; conditions: n=10/group, from day 15; FTY720 5 mg/kg i.p. daily 2 weeks; antibodies 15 mg/kg i.p. every three days
Description: Evaluation of in vivo therapeutic activity of FTY720 and milatuzumab in the preclinical MCL model. SCID mice were injected i.v. with 40×10^6 JeKo cells and observed daily for signs of tumor burden.
Six to eight-week old female SCID mice (cb17 scid/scid) were purchased from Taconic Farms (Hudson, N.Y.) and maintained in pathogen-free, isolation cages. All animals were depleted of murine NK cells with intra-peritoneal (i.p.) injections of 0.2 mg of rat anti-mouse interleukin-2 receptor β monoclonal antibody (TMβ1) 1 day prior to engraftment with human tumor cell lines and then every week. Forty-eight hours post intravenous injection of 40×10^6 Jeko cells via tail vein, 50 mice were randomly distributed into 10 cages. Animals in groups of ten were treated starting at day 15 after engraftment. […] The third group was treated with FTY720 (5 mg/kg) every day for 2 weeks via i.p. The fourth group received milatuzumab (15 mg/kg) every three days, via i.p. injection. The fifth group received the combination of FTY720 and milatuzumab. Animals were monitored daily for signs of tumor burden, including hind limb paralysis, respiratory distress, weight loss, ruffled coat, and distended abdomen. Body weight was measured weekly for the first 3 weeks and then daily. […]

Substance: milatuzumab: fully humanized monoclonal antibody specific for CD74
- activity as single agents (four MCL cell lines): only modest activity
- growth inhibition (human AML cell lines; first responding AML line, with IFN-γ): 44.8%
- growth inhibition (human AML cell lines; first responding AML line, without IFN-γ): 23.7%
- growth inhibition (human AML cell lines; second responding AML line, with IFN-γ): 30.9%
- growth inhibition (human AML cell lines; second responding AML line, without IFN-γ): −3.9%
- increased killing after IFN-γ exposure (WSU-FSCCL NHL cells): 33%
- peak levels [1]: 10 to 20 µg/mL
- % change of cell surface expression with IFNγ (Aspc-1; Aspc-1): 121.3%
- % change of cytoplasmic expression with IFNγ (Aspc-1; Aspc-1): 1451.5%
- Cell surface expression (staining with directly labeled MAb) (Aspc-1; Aspc-1 + IFNγ 200 U, 48 h): 7.3
- Cell surface expression (staining with directly labeled MAb) (Aspc-1; Aspc-1, without IFN-γ): 3.3
- % change of cell surface expression with IFNγ (Moser; Moser): 16.3%
- % change of cytoplasmic expression with IFNγ (Moser; Moser): 86.1%
- Cell surface expression (staining with directly labeled MAb) (Moser; Moser + IFNγ 200 U, 48 h): 4.8
- Cell surface expression (staining with directly labeled MAb) (Moser; Moser, without IFN-γ): 4.1
- weight loss or other side effects [2]: did not cause any observed weight loss or other significant side effects
- cell killing [3]: unable to kill
- average cell death [4]: 50%
- median survival [5]: 33.5 days
